In US6608082B1, “Treatment of erectile dysfunction using isoquinoline compound melanocortin receptor ligands” (Lion Bioscience AG, priority 1998, dated 2003):
Like-named read-outs stand apart in the source and are kept apart here.

Molecular target: T1, MCR-1 (Homo sapiens, UniProt Q01726)
T1 construct: expressed in transfected cells; host or cells: HEK 293
Experiment: Melanocortin receptor binding assay, competition with 125I-HP 467, HEK 293 cells expressing hMCR-1
Conditions: for % Disp. MC-1 10 μM: displacement of 125I-HP 467 at 10 μM isoquinoline compound; for % Disp. of 125I-HP 467 (first of duplicate) / % Disp. of 125I-HP 467 (second of duplicate): 10 μM isoquinoline compound; for % Disp. of 125I-HP 467 (first of duplicate): HEK 293 cells expressing MCR-1, duplicate 1; for % Disp. of 125I-HP 467 (second of duplicate): HEK 293 cells expressing MCR-1, duplicate 2; for IC50: read-out: MC-1 IC50
Description: All cell culture media and reagents were obtained from GibcoBRL (Gaithersburg Md.), except for COSMIC CALF SERUM (HyClone; Logan Utah).
Cells were suspended in PBS, 10% COSMIC CALF SERUM and 1 mM CaCl2. Cell suspensions were prepared at a density of 2×10^4 cells/ml for HEK 293 cells expressing hMCR-3, hMCR-4 or hMCR-5, and 1×10^5 cells/ml for HEK 293 cells expressing hMCR-1. Suspensions were placed in a water bath and allowed to warm to 37° C. for 1 hr.
Binding assays were performed in a total volume of 250 μl for HEK 293 cells. […] To each tube was added 4×10^3 HEK 293 cells expressing hMCR-3, hMCR-4 or hMCR-5, or 2×10^4 cells expressing hMCR-1. Assays were incubated for 2.5 hr at 37° C.
GF/B filter plates were prepared by soaking for at least one hour in 5 mg/ml BSA and 10 mM CaCl2. Assays were filtered using a Brandel 96-well cell harvester (Brandel Inc.; Gaithersburg, Md.). The filters were washed four times with cold 50 mM Tris, pH 7.4, the filter plates were dehydrated for 2 hr and 35 μl of MICROSCINT was added to each well. Filter plates were counted using a Packard Topcount (Packard Instrument Co.) and data analyzed using GraphPad PRISM v2.0 (GraphPad Software Inc.; San Diego Calif.) and Microsoft EXCEL v5.0a (Microsoft Corp.; Redmond Wash.).
To assay isoquinoline compounds, binding assays were performed in duplicate in a 96 well format. […] A 0.2 ml aliquot of suspended cells was added to each well to give the cell numbers indicate above, and the cells were incubated at 37° C. for 2.5 hr. Cells were harvested on GF/B filter plates as described above and counted.

[1] = inhibition of binding of 125I-HP 467, HEK 293 cells expressing MCR-1
[2] = competition with 125I-HP 467, HEK 293 cells expressing MCR-1

T1 sequence (Q01726 whole entry): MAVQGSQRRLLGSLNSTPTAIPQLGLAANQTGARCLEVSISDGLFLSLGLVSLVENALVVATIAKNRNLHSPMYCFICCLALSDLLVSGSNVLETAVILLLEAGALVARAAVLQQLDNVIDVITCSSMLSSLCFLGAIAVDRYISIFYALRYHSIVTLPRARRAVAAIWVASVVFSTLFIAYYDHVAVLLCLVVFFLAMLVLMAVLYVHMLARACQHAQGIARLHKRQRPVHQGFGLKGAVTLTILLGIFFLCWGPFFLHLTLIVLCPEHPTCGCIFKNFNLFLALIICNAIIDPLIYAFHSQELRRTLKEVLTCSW

Row | SMILES | % Disp. MC-1 10 μM (first of duplicate) [%] | % Disp. MC-1 10 μM (second of duplicate) [%] | % Disp. of 125I-HP 467 (first of duplicate) [%] | % Disp. of 125I-HP 467 (second of duplicate) [%] | further results
1 | CNC(CN)CN1Cc2ccccc2C(CNC2CCCCC2)C1c1ccccc1O (stereo not drawn) [TRG 2405-92] | 57.6 | 49.9 | – | – | –
2 | CNC(CN)CCCCN1Cc2ccccc2C(CNC2CCCCC2)C1c1ccccn1 (stereo not drawn) [TRG 2405-201] | – | – | 61.1 | 43.4 | –
3 | NCC(CCCCN1Cc2ccccc2C(CNCCc2ccc(Oc3ccccc3)cc2)C1c1cc(C(F)(F)F)cc(C(F)(F)F)c1)NCc1ccc(Br)cc1 (stereo not drawn) [TRG 2421-28] | – | – | – | – | IC50 [1]: 15700 nM
4 | NCCN1Cc2ccccc2C(CNC2CCCCC2)C1c1ccc([N+](=O)[O-])cc1 (stereo not drawn) [TRG 2405-71] | 28.2 | 40 | – | – | –
5 | CCCCNC(CN)CCCCN1Cc2ccccc2C(CN)C1c1ccc(NCC)cc1 (stereo not drawn) [TRG 2411-61] | – | – | – | – | IC50 [2]: 110 nM
6 | NCC(CCCCN1Cc2ccccc2C(CN)C1c1ccc(-c2ccccc2)cc1)NCCc1ccccc1 (stereo not drawn) [TRG 2411-25] | – | – | – | – | IC50 [2]: 350 nM
7 | CNCCNC(CN)CCCCN1Cc2ccccc2C(CN)C1c1ccc(-c2ccccc2)cc1 (stereo not drawn) [TRG 2413-2] | – | – | – | – | IC50 [1]: 540 nM
8 | NCCN1Cc2ccccc2C(CNC2CCCCC2)C1c1cccc(C(F)(F)F)c1 (stereo not drawn) [TRG 2405-35] | 54.6 | 55 | – | – | –
9 | CNC(CN)CN1Cc2ccccc2C(CNC2CCCCC2)C1c1cc(C)c(O)c(C)c1 (stereo not drawn) [TRG 2405-122] | 17.6 | 40.7 | – | – | –
10 | CNC(CN)CCCCN1Cc2ccccc2C(CNC2CCCCC2)C1c1ccccc1Br (stereo not drawn) [TRG 2405-192] | – | – | 73.8 | 50.9 | –
11 | CCNc1ccc(C2C(CNCCc3ccccc3)c3ccccc3CN2CCCCC(CN)NCCNC)cc1 (stereo not drawn) [TRG 2413-4] | – | – | – | – | IC50 [1]: 340 nM
12 | CNC(CN)CCCCN1Cc2ccccc2C(CNC2CCCCC2)C1c1cccc(F)c1F (stereo not drawn) [TRG 2405-189] | – | – | 45 | 54.8 | –
13 | CCNc1ccc(C2C(CNC3CCCCC3)c3ccccc3CN2CCCCC(CN)NCc2ccc(OC)cc2)cc1 (stereo not drawn) [TRG 2411-56] | – | – | – | – | IC50 [2]: 130 nM
14 | NCCN1Cc2ccccc2C(CNC2CCCCC2)C1c1ccoc1 (stereo not drawn) [TRG 2405-42] | 43.6 | 40.7 | – | – | –
15 | CNC(CN)CN1Cc2ccccc2C(CNC2CCCCC2)C1c1cccc(F)c1F (stereo not drawn) [TRG 2405-99] | 34.7 | 54.2 | – | – | –
16 | NCCN1Cc2ccccc2C(CNC2CCCCC2)C1c1cc2c3c(c1O)CCCN3CCC2 (stereo not drawn) [TRG 2405-84] | 18.2 | 37.5 | – | – | –
17 | COc1cccc(C2C(CNC3CCCCC3)c3ccccc3CN2CCN)c1 (stereo not drawn) [TRG 2405-45] | 40.6 | 31.9 | – | – | –
18 | CCCCNc1ccc(C2C(CNCCc3ccccc3)c3ccccc3CN2CCCC(CN)NCCc2ccc3ccccc3c2)cc1 (stereo not drawn) [TRG 2411-199] | – | – | – | – | IC50 [1]: 170 nM
19 | CCCCNc1ccc(C2C(CNC3CCCCC3)c3ccccc3CN2CCC[C@@H](CN)NC)cc1 (stereo partly drawn) [TRG 2411-203] | – | – | – | – | IC50 [1]: 170 nM
20 | NCC(CCCN1Cc2ccccc2C(CNC2CCCCC2)C1c1ccc(-c2ccccc2)cc1)NCC1CCCCC1 (stereo not drawn) [TRG 2411-134] | – | – | – | – | IC50 [2]: 1480 nM
21 | CCCCNc1ccc(C2C(CN)c3ccccc3CN2CCCC(CN)NC)cc1 (stereo not drawn) [TRG 2411-217] | – | – | – | – | IC50 [1]: 90 nM
22 | NCCN1Cc2ccccc2C(CNC2CCCCC2)C1c1ccc(O)cc1 (stereo not drawn) [TRG 2405-66] | 81.6 | 11.3 | – | – | –

Row | SMILES | % Disp. MC-1 10 μM (first of duplicate) [%] | % Disp. MC-1 10 μM (second of duplicate) [%] | % Disp. of 125I-HP 467 (first of duplicate) [%] | % Disp. of 125I-HP 467 (second of duplicate) [%] | further results
23 | CNC(CN)CN1Cc2ccccc2C(CNC2CCCCC2)C1c1ccccc1OC (stereo not drawn) [TRG 2405-109] | 34.7 | 44.7 | – | – | –
24 | CCNc1ccc(C2C(CN)c3ccccc3CN2CCCCC(CN)NCc2ccc(Cl)cc2)cc1 (stereo not drawn) [TRG 2411-67] | – | – | – | – | IC50 [2]: 210 nM
25 | CNC(CN)CN1Cc2ccccc2C(CNC2CCCCC2)C1c1cccc(Oc2ccc(Cl)c(Cl)c2)c1 (stereo not drawn) [TRG 2405-123] | 47.9 | 55.6 | – | – | –
26 | CCCCCNc1ccc(C2C(CNCCc3ccccc3)c3ccccc3CN2CCCC(CN)NCc2ccccc2)cc1 (stereo not drawn) [TRG 2412-18] | – | – | – | – | IC50 [1]: 190 nM
27 | CNC(CN)CN1Cc2ccccc2C(CNC2CCCCC2)C1c1cccc(Br)c1 (stereo not drawn) [TRG 2405-127] | 50.6 | 60.3 | – | – | –
28 | CCCCOc1ccc(C2C(CNCCc3ccccc3)c3ccccc3CN2CCCCC(CN)NC)cc1 (stereo not drawn) [TRG 2412-10] | – | – | – | – | IC50 [1]: 310 nM
29 | CCCOc1ccc(C2C(CNCCc3ccccc3)c3ccccc3CN2CCCC(CN)NCCc2ccccc2)cc1 (stereo not drawn) [TRG 2412-23] | – | – | – | – | IC50 [1]: 350 nM
30 | CCCCNC(CN)CCCN1Cc2ccccc2C(CN)C1c1ccc(NCC)cc1 (stereo not drawn) [TRG 2411-177] | – | – | – | – | IC50 [1]: 110 nM
31 | CNC(CN)CCCCN1Cc2ccccc2C(CNC2CCCCC2)C1c1ccccc1 (stereo not drawn) [TRG 2405-181] | – | – | 57.3 | 64.4 | –
32 | CNC(CN)CN1Cc2ccccc2C(CNC2CCCCC2)C1c1ncc[nH]1 (stereo not drawn) [TRG 2405-108] | 46 | 46.6 | – | – | –
33 | CNC(CN)CN1Cc2ccccc2C(CNC2CCCCC2)C1c1cccc(OC)c1 (stereo not drawn) [TRG 2405-135] | 43.9 | 39.7 | – | – | –
34 | CNC(CN)CN1Cc2ccccc2C(CNC2CCCCC2)C1c1ccc(Br)o1 (stereo not drawn) [TRG 2405-179] | – | – | 61.1 | 56.8 | –
35 | CCCCNc1ccc(C2C(CNC3CCCCC3)c3ccccc3CN2CCCCC(CN)N2CCCC2)cc1 (stereo not drawn) [TRG 2411-89] | – | – | – | – | IC50 [2]: 60 nM
36 | CNC(CN)CCCCN1Cc2ccccc2C(CNC2CCCCC2)C1c1ccc2ccccc2n1 (stereo not drawn) [TRG 2405-202] | – | – | 63 | 53.2 | –
37 | NCCN1Cc2ccccc2C(CNC2CCCCC2)C1c1cnc2ccccc2c1 (stereo not drawn) [TRG 2405-52] | 42.4 | 42.3 | – | – | –
38 | NCCN1Cc2ccccc2C(CNC2CCCCC2)C1c1cccc(F)c1F (stereo not drawn) [TRG 2405-9] | 36.4 | 33.4 | – | – | –
39 | COc1ccc(C2C(CNC3CCCCC3)c3ccccc3CN2CCN)cc1C (stereo not drawn) [TRG 2405-46] | 46.8 | 40.3 | – | – | –
40 | CCCOc1ccc(C2C(CNCCc3ccccc3)c3ccccc3CN2CCCC(CN)NCc2ccccc2)cc1 (stereo not drawn) [TRG 2412-24] | – | – | – | – | IC50 [1]: 410 nM
41 | CNC(CN)CN1Cc2ccccc2C(CNC2CCCCC2)C1c1ccc([N+](=O)[O-])c(O)c1 (mixture of isomers) [TRG 2405-160] | 26.1 | 41.7 | – | – | –
42 | CCNc1ccc(C2C(CNC3CCCCC3)c3ccccc3CN2CCCC(CN)N2CCCC2)cc1 (stereo not drawn) [TRG 2411-166] | – | – | – | – | IC50 [1]: 40 nM
43 | NCCN1Cc2ccccc2C(CNC2CCCCC2)C1c1ccc(Cl)c(Cl)c1 (stereo not drawn) [TRG 2405-26] | 59.6 | 64.6 | – | – | –

More lines, main results first:

Row | % Disp. MC-1 10 μM (first of duplicate) [%] | % Disp. MC-1 10 μM (second of duplicate) [%] | % Disp. of 125I-HP 467 (first of duplicate) [%] | % Disp. of 125I-HP 467 (second of duplicate) [%] | SMILES | further results
44 | – | – | 78.2 | 74.6 | CNC(CN)CCCCN1Cc2ccccc2C(CNC2CCCCC2)C1c1cccc(C)c1 (stereo not drawn) [TRG 2405-227] | –
45 | – | – | 41.1 | 33.7 | CNC(CN)CCCCN1Cc2ccccc2C(CNC2CCCCC2)C1c1nccs1 (stereo not drawn) [TRG 2405-270] | –
46 | – | – | 87.5 | 84.9 | CNC(CN)CCCCN1Cc2ccccc2C(CNC2CCCCC2)C1c1cccc(Oc2ccc(OC)cc2)c1 (stereo not drawn) [TRG 2405-214] | –
47 | – | – | 76.5 | 69.6 | CNC(CN)CCCCN1Cc2ccccc2C(CNC2CCCCC2)C1c1cc(Cl)cc(Cl)c1 (stereo not drawn) [TRG 2405-210] | –
48 | – | – | 49.4 | 46.9 | CNC(CN)CCCCN1Cc2ccccc2C(CNC2CCCCC2)C1c1ccc([N+](=O)[O-])cc1 (stereo not drawn) [TRG 2405-251] | –
49 | – | – | 34.3 | 39.3 | CNC(CN)CCCCN1Cc2ccccc2C(CNC2CCCCC2)C1c1ccoc1 (stereo not drawn) [TRG 2405-222] | –
50 | – | – | 58.1 | 49 | CNC(CN)CCCCN1Cc2ccccc2C(CNC2CCCCC2)C1c1cccs1 (stereo not drawn) [TRG 2405-203] | –
51 | – | – | 43.5 | 42.9 | CNC(CN)CCCCN1Cc2ccccc2C(CNC2CCCCC2)C1c1cccc(CN)c1 (stereo not drawn) [TRG 2405-219] | –
52 | – | – | 89.2 | 84.2 | CNC(CN)CCCCN1Cc2ccccc2C(CNC2CCCCC2)C1c1cccc(Oc2ccccc2)c1 (stereo not drawn) [TRG 2405-230] | –
53 | – | – | 65.2 | 62.7 | CNC(CN)CCCCN1Cc2ccccc2C(CNC2CCCCC2)C1c1cccc(F)c1 (stereo not drawn) [TRG 2405-221] | –
54 | – | – | 82.3 | 83 | CNC(CN)CCCCN1Cc2ccccc2C(CNC2CCCCC2)C1c1ccc(C)cc1 (stereo not drawn) [TRG 2405-249] | –
